Results as given in ChEMBL document CHEMBL1137795, “Bioactive compounds from aquatic and terrestrial sources” (J Nat Prod, 1990).
≈ marks a conversion by molar mass, not a printed value. Calls of active or inactive are those of the source. The rule behind the calls is not given here. Numbered stars: 1 amine (or outer) side, 2 acyl side, 3 side chain; on linkers, the order of the positions; unused ones are H or OH. Bridge positions count the residues as written; N and C are the ends. Square brackets hold non-standard residues; d marks the D form. Peptide text beside a SMILES is read from it. X1 = CC[C@H](C)[C@@H](N[*:1])[C@@H](O)CC(=O)O[C@H](C(=O)[C@H](C)C(=O)[*:2])C(C)C; NMeY = CN[C@@H](Cc1ccc(O)cc1)C(=O)O; dNMeL = CN[C@H](CC(C)C)C(=O)O; Lac = C[C@H](O)C(=O)O

How the values were obtained:
L1210 = test: Cytotoxicity against mouse L1210 cells; assay type: functional, cell-based
Human alphaherpesvirus 1 [1] = test: Antiviral activity against HSV1 assessed as reduction in plaque formation at 20 ng; assay type: functional, organism-based
[2] = test system: Vesicular stomatitis virus; test: Antiviral activity against VSV assessed as reduction in plaque formation at 20 ng; assay type: functional, organism-based
Human alphaherpesvirus 1 [3] = test: Antiviral activity against HSV1 assessed as reduction in plaque formation at 780 ng; assay type: functional, organism-based
[4] = test system: Vesicular stomatitis virus; test: Antiviral activity against VSV assessed as reduction in plaque formation at 100 ng; assay type: functional, organism-based
Human alphaherpesvirus 1 [5] = test: Antiviral activity against HSV1 assessed as reduction in plaque formation at 30 ng; assay type: functional, organism-based
[6] = test system: Vesicular stomatitis virus; test: Antiviral activity against VSV assessed as reduction in plaque formation at 30 ng; assay type: functional, organism-based
[7] = test system: Vesicular stomatitis virus; test: Antiviral activity against VSV assessed as reduction in plaque formation at 100 ug; assay type: functional, organism-based
Human alphaherpesvirus 1 [8] = test: Antiviral activity against HSV1 assessed as reduction in plaque formation at 10 ug; assay type: functional, organism-based
Human alphaherpesvirus 1 [9] = test: Antiviral activity against HSV1 assessed as reduction in plaque formation at 100 ug; assay type: functional, organism-based
P388 [10] = test: In vivo antitumor activity against mouse P388 cells at 3.8 ug/kg relative to control; assay type: functional
B16 = test: In vivo antitumor activity against mouse B16 cells at 10 ug/kg relative to control; assay type: functional
P388 [11] = test: In vivo antitumor activity against mouse P388 cells at 250 ug/kg relative to control; assay type: functional
P388 [12] = test: In vivo antitumor activity against mouse P388 cells at 15 ug/kg relative to control; assay type: functional

Q: For `CC[C@H](C)[C@@H]1NC(=O)[C@@H](NC(=O)[C@@H](CC(C)C)N(C)C(=O)[C@@H]2CCCN2C(=O)[C@H](C)OC(C)=O)[C@@H](C)OC(=O)[C@H](Cc2ccc(OC)cc2)N(C)C(=O)[C@@H]2CCCN2C(=O)[C@H](CC(C)C)NC(=O)[C@@H](C)C(=O)[C@H](C(C)C)OC(=O)C[C@@H]1OC(C)=O`, which IC50 (L1210) is on record?
A: Its IC50 is 1.6 ng/mL (≈ 1.34 nM).

Q: `CC(=O)O[C@H]1C[C@]2(C)[C@H]3[C@H](O)C(=O)[C@]4(C)[C@@H](c5ccc(=O)oc5)CC[C@]4(O)[C@@H]3CC[C@]2(O)C[C@H]1OC(C)=O` was tested. Which Activity (Human alphaherpesvirus 1 [1]) did it give?
A: Its Activity is “inactive”.

Q: And the AC50 [2]?
A: Its AC50 is “Not Active”.

Q: What about the Activity (Human alphaherpesvirus 1 [3]) of the same compound?
A: The Activity was “Active”.

Q: Which Activity [4] does the source give for `CC(=O)O[C@@H]1C[C@@]2(O)CC[C@@H]3[C@H]([C@H](O)C(=O)[C@]4(C)[C@@H](c5ccc(=O)oc5)CC[C@]34O)[C@@]2(C)C[C@@H]1O` here?
A: Its Activity is “inactive”.

Q: With `CC(=O)O[C@H]1C[C@]2(C)[C@H]3[C@H](O)C(=O)[C@]4(C)[C@@H](c5ccc(=O)oc5)CC[C@]4(O)[C@@H]3CC[C@]2(O)C[C@H]1O` as the compound, how does the Activity [4] read?
A: Its Activity is “inactive”.

Q: How did the Activity (Human alphaherpesvirus 1 [5]) turn out when `CC(=O)O[C@H]1C[C@]2(C)[C@H]3[C@H](O)C(=O)[C@]4(C)[C@@H](c5ccc(=O)oc5)CC[C@]4(O)[C@@H]3CC[C@]2(O)C[C@H]1OC(=O)C(C)C` was run?
A: Its Activity is “inactive”.

Q: And the Activity [6]?
A: The Activity was “inactive”.

Q: `CCC(=O)O[C@@H]1C[C@@]2(O)CC[C@@H]3[C@H]([C@H](O)C(=O)[C@]4(C)[C@@H](c5ccc(=O)oc5)CC[C@]34O)[C@@]2(C)C[C@@H]1OC(C)=O` was tested. Which Activity (Human alphaherpesvirus 1 [5]) did it give?
A: Its Activity is “inactive”.

Q: What about the Activity [6] of the same compound?
A: Its Activity is “inactive”.

Q: And the Activity [4]?
A: The Activity was “inactive”.

Q: Which Activity [7] does the source give for `NC(=O)c1ncn([C@@H]2O[C@H](CO)[C@@H](O)[C@H]2O)n1` here?
A: Its Activity is “Active”.

Q: For `Nc1nc2c(ncn2COCCO)c(=O)[nH]1`, which Activity (Human alphaherpesvirus 1 [8]) is on record?
A: The Activity was “Active”.

Q: What about the Activity (Human alphaherpesvirus 1 [9]) of the same compound?
A: Its Activity is “Active”.

Q: With `Nc1ncnc2c1ncn2[C@@H]1O[C@H](CO)[C@@H](O)[C@@H]1O` as the compound, how does the Activity (Human alphaherpesvirus 1 [8]) read?
A: The Activity was “inactive”.

Q: And the Activity (Human alphaherpesvirus 1 [9])?
A: The Activity was “Active”.

Q: Which IC50 (L1210) does the source give for `CC[C@H](C)[C@H]1NC(=O)[C@@H](NC(=O)[C@@H](CC(C)C)NC)[C@@H](C)OC(=O)[C@H](Cc2ccc(OC)cc2)N(C)C(=O)[C@@H]2CCCN2C(=O)[C@H](CC(C)C)NC(=O)[C@@H](C)C(=O)[C@H](C(C)C)OC(=O)C[C@@H]1O` [DIDEMNIN A] (H-[dNMeL]T[X1]LP[NMeY](Me); ester 2-C) here?
A: The IC50 was 14 ng/mL (≈ 14.8 nM).

Q: How did the IC50 (L1210) turn out when `CC[C@H](C)[C@H]1NC(=O)[C@@H](NC(=O)[C@@H](CC(C)C)N(C)C(=O)[C@H](C)O)[C@@H](C)OC(=O)[C@H](Cc2ccc(OC)cc2)N(C)C(=O)[C@@H]2CCCN2C(=O)[C@H](CC(C)C)NC(=O)[C@@H](C)C(=O)[C@H](C(C)C)OC(=O)C[C@@H]1O` [DIDEMNIN C] (H-[Lac][dNMeL]T[X1]LP[NMeY](Me); ester 3-C) was run?
A: Its IC50 is 11 ng/mL (≈ 10.8 nM).

Q: How did the IC50 (L1210) turn out when `CC[C@H](C)[C@@H]1NC(=O)[C@@H](NC(=O)[C@@H](CC(C)C)N(C)C(=O)[C@@H]2CCCN2C(=O)[C@H](C)OC(=O)[C@H](CCC(=O)O)NC(=O)[C@H](CCC(N)=O)NC(=O)[C@H](CCC(N)=O)NC(=O)[C@@H](N)CCC(N)=O)[C@@H](C)OC(=O)[C@H](Cc2ccc(OC)cc2)N(C)C(=O)[C@@H]2CCCN2C(=O)[C@H](CC(C)C)NC(=O)[C@@H](C)C(=O)[C@H](C(C)C)OC(=O)C[C@@H]1O` [DIDEMNIN D] was run?
A: The IC50 was 5 ng/mL (≈ 3.08 nM).

Q: With `CC[C@H](C)[C@@H]1NC(=O)[C@@H](NC(=O)[C@@H](CC(C)C)N(C)C(=O)[C@@H]2CCCN2C(=O)[C@H](C)OC(=O)[C@H](CCC(=O)O)NC(=O)[C@H](CCC(N)=O)NC(=O)[C@@H](N)CCC(N)=O)[C@@H](C)OC(=O)[C@H](Cc2ccc(OC)cc2)N(C)C(=O)[C@@H]2CCCN2C(=O)[C@H](CC(C)C)NC(=O)[C@@H](C)C(=O)[C@H](C(C)C)OC(=O)C[C@@H]1O` [DIDEMNIN E] as the compound, how does the IC50 (L1210) read?
A: The IC50 was 3 ng/mL (≈ 2 nM).

Q: How did the IC50 (L1210) turn out when `CC[C@H](C)[C@@H]1NC(=O)[C@@H](NC(=O)[C@@H](CC(C)C)N(C)C=O)[C@@H](C)OC(=O)[C@H](Cc2ccc(OC)cc2)N(C)C(=O)[C@@H]2CCCN2C(=O)[C@H](CC(C)C)NC(=O)[C@@H](C)C(=O)[C@H](C(C)C)OC(=O)C[C@@H]1O` [DIDEMNIN G] was run?
A: The IC50 was 6 ng/mL (≈ 6.18 nM).

Q: `CCCCCCC[C@@H](O)CC(=O)N[C@@H](CCC(N)=O)C(=O)N[C@@H](CCC(N)=O)C(=O)N[C@@H](CCC(=O)O)C(=O)O[C@@H](C)C(=O)N1CCC[C@H]1C(=O)N(C)[C@H](CC(C)C)C(=O)N[C@@H]1C(=O)N[C@@H]([C@@H](C)CC)[C@@H](O)CC(=O)O[C@@H](C(C)C)C(=O)[C@H](C)C(=O)N[C@@H](CC(C)C)C(=O)N2CCC[C@H]2C(=O)N(C)[C@@H](Cc2ccc(OC)cc2)C(=O)O[C@@H]1C` [DIDEMNIN X] was tested. Which IC50 (L1210) did it give?
A: The IC50 was 4.4 ng/mL (≈ 2.64 nM).

Q: How did the IC50 (L1210) turn out when `CCCCCCC[C@@H](O)CC(=O)N[C@@H](CCC(N)=O)C(=O)N[C@@H](CCC(N)=O)C(=O)N[C@@H](CCC(N)=O)C(=O)N[C@@H](CCC(=O)O)C(=O)O[C@@H](C)C(=O)N1CCC[C@H]1C(=O)N(C)[C@H](CC(C)C)C(=O)N[C@@H]1C(=O)N[C@@H]([C@@H](C)CC)[C@@H](O)CC(=O)O[C@@H](C(C)C)C(=O)[C@H](C)C(=O)N[C@@H](CC(C)C)C(=O)N2CCC[C@H]2C(=O)N(C)[C@@H](Cc2ccc(OC)cc2)C(=O)O[C@@H]1C` [DIDEMNIN Y] was run?
A: Its IC50 is 5.6 ng/mL (≈ 3.12 nM).

Q: `CC[C@H](C)[C@@H]1NC(=O)[C@@H](NC(=O)[C@@H](CC(C)C)NC)[C@@H](C)OC(=O)[C@H](Cc2ccc(OC)cc2)N(C)C(=O)[C@@H]2CCCN2C(=O)[C@H](CC(C)C)NC(=O)[C@@H](C)C(O)[C@H](C(C)C)OC(=O)C[C@@H]1O` (some centres undefined) [DIHYDRODIDEMNIN A] was tested. Which IC50 (L1210) did it give?
A: Its IC50 is 520 ng/mL (≈ 550 nM).

Q: For `COc1cc2c(cc1O)CCN[C@]21CS[C@@H]2c3c(OC(C)=O)c(C)c4c(c3[C@H](COC1=O)N1[C@@H]2[C@@H]2N[C@@H](Cc3cc(C)c(OC)c(O)c32)[C@@H]1O)OCO4` [ECTEINASCIDIN 729], which T/C (P388 [10]) is on record?
A: The T/C was 214%.

Q: What about the T/C (B16) of the same compound?
A: Its T/C is 246%.

Q: For `COc1cc2c(cc1O)CCN[C@]21CS[C@@H]2c3c(OC(C)=O)c(C)c4c(c3[C@H](COC1=O)N1C[C@@H]3Cc5cc(C)c(OC)c(O)c5[C@H]([C@H]21)N3C)OCO4` [ECTEINASCIDIN 745], which T/C (P388 [11]) is on record?
A: Its T/C is 111%.

Q: And the IC50 (L1210)?
A: The IC50 was 88 ng/mL (≈ 118 nM).

Q: For `CC[C@H](C)[C@@H]1NC(=O)[C@@H](N2CN(C)[C@H](CC(C)C)C2=O)[C@@H](C)OC(=O)[C@H](Cc2ccc(OC)cc2)N(C)C(=O)[C@@H]2CCCN2C(=O)[C@H](CC(C)C)NC(=O)[C@@H](C)C(=O)[C@H](C(C)C)OC(=O)C[C@@H]1O` [METHYLENE DIDEMNIN A], which IC50 (L1210) is on record?
A: The IC50 was 6.5 ng/mL (≈ 6.8 nM).

Q: For `CC[C@H](C)[C@@H]1NC(=O)[C@@H](NC(=O)[C@@H](CC(C)C)N(C)C(C)=O)[C@@H](C)OC(=O)[C@H](Cc2ccc(OC)cc2)N(C)C(=O)[C@@H]2CCCN2C(=O)[C@H](CC(C)C)NC(=O)[C@@H](C)C(=O)[C@H](C(C)C)OC(=O)C[C@@H]1OC(C)=O` [N,O-DIACETYLDIDEMNIN A], which IC50 (L1210) is on record?
A: The IC50 was 15 ng/mL (≈ 14.6 nM).

Q: How did the IC50 (L1210) turn out when `CC[C@H](C)[C@@H]1NC(=O)[C@@H](NC(=O)[C@@H](CC(C)C)N(C)C(C)=O)[C@@H](C)OC(=O)[C@H](Cc2ccc(OC)cc2)N(C)C(=O)[C@@H]2CCCN2C(=O)[C@H](CC(C)C)NC(=O)[C@@H](C)C(=O)[C@H](C(C)C)OC(=O)C[C@@H]1O` [N-ACETYLDIDEMNIN A] was run?
A: The IC50 was 2.4 ng/mL (≈ 2.44 nM).

Q: `CC[C@H](C)[C@@H]1NC(=O)[C@@H](NC(=O)[C@@H](CC(C)C)N(C)C(=O)[C@@H]2CCCN2C(=O)[C@H](C)OC(C)=O)[C@H](C)OC(=O)[C@H](Cc2ccc(OC)cc2)N(C)C(=O)[C@@H]2CCCN2C(=O)[C@H](CC(C)C)NC(=O)[C@@H](C)C(=O)[C@H](C(C)C)OC(=O)C[C@@H]1O` [NORDIDEMNIN B] was tested. Which IC50 (L1210) did it give?
A: Its IC50 is 7.8 ng/mL (≈ 6.76 nM).

Q: With `COc1cc2c(cc1O)CCN[C@]21CS[C@@H]2c3c(OC(C)=O)c(C)c4c(c3[C@H](COC1=O)N1[C@@H]2[C@H]2c3c(cc(C)c(OC)c3O)C[C@@H]([C@@H]1O)N2C)OCO4` [TRABECTEDIN] as the compound, how does the T/C (P388 [12]) read?
A: Its T/C is 167%.

Q: And the IC50 (L1210)?
A: The IC50 was 0.5 ng/mL (≈ 0.656 nM).
